Test results taken from patent US20220409573A1, “Hippocampus Regeneration And Memory Recovery” (INNOBIOSCIENCE, LLC, priority 2021, published 2022).
“Also recorded” adds a separate entry of the source. Read-outs that look alike come from different tables or passages of the source.

What was measured:
GSK-3β = assay: Immunoblot of GSK-3β phosphorylation and β-catenin in Wt hippocampal slices; format: cell-based, mice
Method: Immunoblotting. The hippocampus and cortex of treated or control transgenic mice were dissected on ice and immediately processed has detailed previously (Toledo & Inestrosa 2010). Briefly, hippocampal and cortical tissues were homogenized in RIPA buffer (10 mM Tris-Cl, pH 7.4, EDTA 5 mM, 1% NP-40, 1% sodium deoxycholate, and 1% SDS) supplemented with a protease inhibitor mixture and phosphatase inhibitors (25 mMNaF, […] and 30 μM Na4P207) using a Potter homogenizator and then passed sequentially through different caliber syringes. Protein samples were centrifuged at 14000 rpm at 4° C. twice for 15 min. Protein concentrations were determined using the BCA Protein Assay Kit (Pierce). Samples were resolved by SDS-PAGE followed by immunoblotting on PVDF membranes. Western blot assays were carried out as previously described (Inestrosa et al 2013; Toledo & Inestrosa 2010).
Slice Preparation and Electrophysiology. Hippocampal slices were prepared according to standard procedures previously described (Cerpa et al 2010; VarelaNallar et al 2010). Briefly, transverse slices (350 μm) from the dorsal hippocampus were cut under cold artificial cerebrospinal fluid (ACSF, in mM: 124 NaCl, […], 10 D-glucose, 2.69 KCl, 1.25 KH2PO4 2.5 CaCl2, 1.3 MgSO4, y 2.60 NaHPO4) using a V ibratome (Leica VT 1000s, Germany) and incubated in ACSF for 1 h at room temperature. In all experiments, 10 μM picrotoxin (PTX) was added to suppress inhibitory GABAA transmission (Cuitino et al 2010). Slices were transferred to an experimental chamber (2 ml), superfused (3 ml/min, at 20-22° C.) with gassed ACSF and visualized by trans-illumination with a binocular microscope (MSZ-10, Nikon, Melville, N.Y.). […] The paired pulse facilitation index was calculated by ((R2−R1)/R1), where R1 and R2 were the peak amplitudes of the first and second fEPSP respectively. […] Evoked postsynaptic responses were analyzed off-line, using an analysis software (pClampfit, Molecular Devices), which allowed visual detection of events, computing only those events that exceeded and arbitrary threshold.

[1] = tested on: CA3-CA1 connections in hippocampal slices; assay: Electrophysiology in Wt hippocampal slices (fEPSP, PPF, LTP, LTD); format: cell-based, mice
Method: Slice Preparation and Electrophysiology. […] Slices were transferred to an experimental chamber (2 ml), superfused (3 ml/min, at 20-22° C.) with gassed ACSF and visualized by trans-illumination with a binocular microscope (MSZ-10, Nikon, Melville, N.Y.). To evoke field excitatory postsynaptic potentials (fEPSPs), we stimulate with bipolar concentric electrodes (Platinum/Iridium, 125 μm OD diameter, FHC Inc., Bowdoin, Me.) generated by a stimulator (Axon 700b, Molecular Devices, Sunnyvale, Calif.) and connected to an isolation unit (Isoflex, AMPI, Jerusalem, Israel) . The stimulation was in the Stratum Radiatum within 100-200 μm from the recording site. The paired pulse facilitation index was calculated by ((R2−R1)/R1), where R1 and R2 were the peak amplitudes of the first and second fEPSP respectively. To generate LTP we used Theta Burst Stimulation (TBS) consisting of 5 trains of stimulus with an inter-train interval of 20 s. Each train consisted of 10 bursts at 5 Hz and each burst having 4 pulses at 100 Hz. To generate LTD we used Low Frequency Stimulation (LFS) consisting in 900 paired pulses at 1 Hz. Recordings were filtered at 2.0-3.0 kHz, sampled at 4.0 kHz using an A/D converter, and stored with pClamp 10 (Molecular Devices). Evoked postsynaptic responses were analyzed off-line, using an analysis software (pClampfit, Molecular Devices), which allowed visual detection of events, computing only those events that exceeded and arbitrary threshold.

[2] = target: T1, Immunoprecipitated GSK-3β from hippocampus of wild-type mice (Mus musculus, UniProt Q9WV60); assay: Luminometric GSK-3β activity assay; format: biochemical
T1 construct: the hippocampus of two month-old wild-type mice were lysed in immunoprecipitation buffer; from tissue; host or cells: hippocampus of two-month-old wild-type mice, immunoprecipitated with anti-GSK-3β antibody (Santa Cruz Biotechnology) on protein G beads
Method: Immunoprecipitation. The immunoprecipitation was performed as previously described (Garrido et al, 2002). Briefly, the hippocampus of two month-old wild-type mice were lysed in immunoprecipitation buffer (25 mM HEPES pH 7.4, 125 mM NaCl, 25 mM NaF, 1 mM EDTA, 1 mM EGTA, 1% NP-40) including phosphatase inhibitors (1 mM NaVO3 and 200 nM okadaic acid) and the protease inhibitor cocktail described above. 200 μg of total proteins from lysate were precleared by using protein G-Sepharose beads (Santa Cruz Biotechnology) for 1 h at 4° C. and then were incubated with anti-GSK-3β antibody (Santa Cruz Biotechnology) and new protein G beads for 4 h at 4° C. The immunocomplexes were finally pelleted and washed three times with cold immunoprecipitation buffer.
GSK-3β activity assay. IC50 of ANDRO was determined by a luminometric GSK-3β activity assay. […] Briefly, ANDRO was tested at different concentrations and diluted in kinase buffer containing final concentrations of: 40 mM Tris pH 7.5; 20 mM MgCl2; 0,1 mg/ml BSA. Diluted ANDRO was added to 25 μM pGS-2 peptide substrate (Millipore, Billerica, USA), immunoprecipited GSK-3β and 10 μM ATP (Cell Signaling, Boston, USA) to a total assay volume of 50 μl. The enzymatic reaction was stopped after 10 min of incubation to room temperature by adding 50 μl Kinase Glo (Promega, Madison, USA). The luminometric signal was allowed to stabilize for 10 min and the measured with a Luminometer TURNER DESIGNS model TD-2020.
Immunoprecipitated GSK-3β from hippocampus of wild-type mice was incubated with ATP and pGS-2 peptide substrate for 5 min, then the reaction was stopped and the kinase activity was determined in a luminometer.

[3] = Wt hippocampal slices, 10 μM ANDRO for 1 hr

T1 sequence (Q9WV60 whole entry): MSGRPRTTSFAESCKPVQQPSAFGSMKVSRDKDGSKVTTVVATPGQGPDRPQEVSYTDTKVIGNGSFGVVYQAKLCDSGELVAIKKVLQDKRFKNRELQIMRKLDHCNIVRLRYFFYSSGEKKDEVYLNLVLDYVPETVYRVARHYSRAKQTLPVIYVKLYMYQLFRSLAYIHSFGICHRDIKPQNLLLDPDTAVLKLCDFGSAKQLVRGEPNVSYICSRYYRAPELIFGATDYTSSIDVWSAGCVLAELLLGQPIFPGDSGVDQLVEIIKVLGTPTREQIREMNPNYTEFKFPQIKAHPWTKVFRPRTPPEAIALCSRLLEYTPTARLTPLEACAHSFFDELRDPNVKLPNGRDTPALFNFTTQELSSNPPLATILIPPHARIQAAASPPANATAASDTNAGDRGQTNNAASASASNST

IC50 ([2]; different concentrations of ATP, read-out: IC50 using different concentrations of ATP): ~5.58 µM
IC50 with increased substrate concentration ([2]; different concentrations of the substrate): increase in the IC50
IC50 ([2]; preincubation 10 min, 10 μM ATP, 25 μM pGS-2 peptide substrate, read-out: IC50 of GSK-3β activity): 5.58 µM
SMILES: C=C1CC[C@@H]2C(C)(CO)[C@H](O)CC[C@@]2(C)C1C/C=C1/C(=O)OC[C@H]1O (stereo in doubt) [ANDRO, 3-(2-(Decahydro-6-hydroxy-5-(hydroxymethyl)-5,8a-dimethyl-2-methylenenaphthyl)ethylidene)dihydro-4-hydroxyfuran-2(3H)-one]
levels of β-catenin (GSK-3β; Wt hippocampal slices incubated with ANDRO): increase in the levels of β-catenin
active form of GSK-3β (Tyr-216 phosphorylation) (GSK-3β; [3]): decrease of Tyr-216 phosphorylation; also recorded: reduction of the active form
inactive form of GSK-3β (Ser-9 phosphorylation) (GSK-3β; [3]): increment of Ser-9 phosphorylation; also recorded: increase in the levels of the inactive form
fEPSP amplitude (basal synaptic transmission) ([1]; ANDRO (5 μM), 30 min, Wt slices): increased the fEPSP amplitude
paired pulse facilitation (PPF) ratio ([1]; Wt slices): does not increase PPF ratio
LTP induction or maintenance ([1]; Wt slices in presence of ANDRO, TBS): do not observed alteration in the LTP induction or maintenance
induction of LTD (fEPSP slope after LFS) ([1]; hippocampal slices, 6-BIO 10 nM): LTD was inhibited
